Laboratory results published in ChEMBL document CHEMBL5584204, “Discovery of a novel tetrahydroimidazo[1,2-a]pyridine-5-carboxylic acid derivative as a potent and selective heparanase-1 inhibitor utilizing an improved synthetic approach” (Bioorg Med Chem Lett, 2024).

What was measured:
[1] = Inhibition of GBA (unknown origin); design: species or system Homo sapiens
[2] = target: T1, Heparanase (Homo sapiens, UniProt Q9Y251); test: Inhibition of HPSE1 (unknown origin)
T1 sequence (Q9Y251 whole entry): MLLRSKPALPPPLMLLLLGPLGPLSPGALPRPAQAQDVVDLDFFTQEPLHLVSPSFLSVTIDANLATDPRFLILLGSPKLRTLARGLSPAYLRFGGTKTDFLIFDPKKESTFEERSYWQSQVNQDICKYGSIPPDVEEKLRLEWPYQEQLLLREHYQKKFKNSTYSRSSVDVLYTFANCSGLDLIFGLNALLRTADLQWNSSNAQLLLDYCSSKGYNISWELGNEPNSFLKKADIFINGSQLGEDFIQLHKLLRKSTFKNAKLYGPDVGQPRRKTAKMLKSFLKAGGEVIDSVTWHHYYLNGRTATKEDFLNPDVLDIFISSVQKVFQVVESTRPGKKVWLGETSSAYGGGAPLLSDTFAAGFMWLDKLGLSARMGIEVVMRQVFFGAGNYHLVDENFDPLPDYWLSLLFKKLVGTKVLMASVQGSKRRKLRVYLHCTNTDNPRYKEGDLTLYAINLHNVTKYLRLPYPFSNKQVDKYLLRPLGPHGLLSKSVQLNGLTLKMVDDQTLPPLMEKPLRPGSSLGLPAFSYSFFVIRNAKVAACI

[3] = target: T2, Beta-glucuronidase (Homo sapiens, UniProt P08236); test: Inhibition of GUSbeta (unknown origin)
T2 sequence (P08236 whole entry): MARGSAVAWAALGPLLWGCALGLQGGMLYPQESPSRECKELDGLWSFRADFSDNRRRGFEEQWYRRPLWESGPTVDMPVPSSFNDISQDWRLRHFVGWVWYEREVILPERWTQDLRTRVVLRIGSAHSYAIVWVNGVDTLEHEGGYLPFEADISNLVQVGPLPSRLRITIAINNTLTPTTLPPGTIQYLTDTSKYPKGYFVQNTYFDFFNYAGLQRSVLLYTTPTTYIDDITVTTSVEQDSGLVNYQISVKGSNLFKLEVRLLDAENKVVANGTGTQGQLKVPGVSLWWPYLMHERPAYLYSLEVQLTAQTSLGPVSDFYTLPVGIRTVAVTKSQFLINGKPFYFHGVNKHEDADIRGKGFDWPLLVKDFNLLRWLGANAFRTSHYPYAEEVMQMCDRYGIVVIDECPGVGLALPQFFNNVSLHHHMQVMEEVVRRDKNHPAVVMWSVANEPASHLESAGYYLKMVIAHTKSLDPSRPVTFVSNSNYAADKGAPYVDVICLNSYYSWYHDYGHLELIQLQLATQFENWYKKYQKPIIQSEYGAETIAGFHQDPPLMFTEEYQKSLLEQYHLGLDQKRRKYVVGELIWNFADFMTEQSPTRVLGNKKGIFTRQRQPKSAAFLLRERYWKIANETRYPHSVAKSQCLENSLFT

IC50 [1]	IC50 [2]	IC50 [3]	Compound
439 nM			CO[C@H]1[C@H](O)[C@@H](O)c2nc(CCc3cccc(Oc4ccccc4)c3)cn2[C@@H]1C(=O)O
1250 nM	57 nM	7210 nM	O=C(O)[C@@H]1[C@@H](OCCc2ccccc2)[C@H](O)[C@@H](O)c2nc(CCc3cccc(Oc4ccccc4)c3)cn21
38600 nM	621 nM	41800 nM	CC(C)O[C@H]1[C@H](O)[C@@H](O)c2nc(CCc3cccc(Oc4ccccc4)c3)cn2[C@@H]1C(=O)O
